The target of one data set is T1, CD30 (Homo sapiens, UniProt P28908).
T1 construct: selections were carried out against the extracellular domains of both CD30 and L1-CAM expressed as N-terminal Fc chimeras
T1 sequence (P28908 19-385 limits assumed): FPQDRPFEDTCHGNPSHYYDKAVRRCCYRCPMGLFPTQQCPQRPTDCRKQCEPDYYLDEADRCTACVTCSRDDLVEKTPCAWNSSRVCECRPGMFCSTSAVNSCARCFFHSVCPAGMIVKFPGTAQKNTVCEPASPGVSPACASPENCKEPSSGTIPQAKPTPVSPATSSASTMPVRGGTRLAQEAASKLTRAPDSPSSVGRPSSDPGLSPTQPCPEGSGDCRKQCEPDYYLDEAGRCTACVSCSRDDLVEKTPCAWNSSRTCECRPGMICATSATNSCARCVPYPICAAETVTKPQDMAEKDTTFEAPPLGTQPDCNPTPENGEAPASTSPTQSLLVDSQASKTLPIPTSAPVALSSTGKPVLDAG
As to the kind of experiment: Fluorescence polarisation affinity of txNA aptamers. Format: binding. On the procedure:
In this example, selections were carried out against the extracellular domains of both CD30 and L1-CAM expressed as N-terminal Fc chimeras. Briefly, for each round libraries were annealed in 1×HBSSTT (Hanks' Balanced Salt Solution with 5 mM each TRIS pH 7.4 and 8.3 and 0.05% Tween-20) for 5 min 85° C. and cooled to 4° C. at 0.1° C./sec, exposed to either protein AG or streptavidin-coated paramagnetic beads (see below), filtered to remove the beads and then added to recombinant protein in 1×HBSST. These mixtures were incubated at room temperature on a rotator to allow aptamers to bind to the recombinant proteins in solution and binders were recovered via protein AG or streptavidin-coated paramagnetic beds. Rounds 1, 2 and 5 were carried out using native protein and Protein AG Magnetic Beads (Pierce). All other rounds were carried out using protein biotinylated with NHS-LC-LC-biotin (Pierce) and recovered from the binding incubation using NanoLink Streptavidin Magnetic beads (SoluLink). The beads were washed in 1×HBSSTT for 2 h-16 h at room temperature using a Thermo KingFisher and aptamers eluted from the proteins bound to the beads using 30 mM NaOH. Negative selections were carried out against free Fc from round 5 onwards. […]
Aptamers selected against a) CD30 and b) L1-CAM were tested in fluorescence polarisation (FP) and affinities calculated as above (and/or Pinheiro et al (2012)). […]

Data set [1] deals with sTAR (HIV trans-activating response RNA motif). Kind of data set: HNA aptamer affinity by SPR, BLI and ELONA titration. The settings on record: read-out: dissociation constant (KD). Format: binding. On the procedure:
ELONA (Aptamer-ELISA) was carried out as described (56) with minor modifications. For screening and characterization, ssRNA-HNA chimeras were prepared as described above (13.) (using fitcRNAfd (Table S5)) and binding assayed by immunodetection of the FITC-tag on the bound aptamer. […] Bound antibody was detected using a colorimetric substrate as described above (see PAA, 5) […]
For anti-TAR aptamers, 1000RU sTAR was captured (or, as a reference flow cell, 1000RU scrambledTAR-1) before blocking with excess free biotin. Anti-TAR aptamers were injected for 150 s at a series of concentrations (125 nM, 62.5 nM, 31.3 nM, 15.6 nM, 7.8 nM and 3.9 nM) and dissociation monitored for 600 s, in buffer R (20 mM NaOAc, 140 mM KOAc, 3 mM Mg(OAc)2, 0.1% (v/v) Tween20). […]
To obtain optimal fits, SPR data was fitted to double-exponential model using KaleidaGraph (Synergy Software, Pennsylvania, USA) and Prism (GraphPad Software Inc., California, USA) (57). The rate constants of dissociation were measured by fitting dissociation data at time t (Rdissoc) using a double-exponential function: Rdissoc=Rolexp^−(k^off1^t)+Ro2exp^−(k^off2^t)+RI (1) where koff is the dissociation rate constant, Ro is maximum change in resonance for each phase, RI is the bulk resonance change. […]

[HNA-N] = hexitol nucleic acid (N: the base)

With “CD30_13: txNA aptamer selected against CD30, SEQ ID NO:20 (TAGATGTGGTAGAAGTCGTCATTTGGCGAGAAAGCTCAGTCTCAGG; XNA aptamer, chemistry of this clone not given here)”, in the data set with CD30, the “binding to CD30” value was “bind CD30 tightly and with good affinity”.
“T5-S8-7: anti-TAR HNA aptamer, SEQ ID NO:16 (AGGTAGTGCTGTTCGTTCATCTCAAATCTAGTTCGCTATCCAGTTGGC; all [HNA-N], backbone and methylation of C not given here)”: the dissociation constant Kd in data set [1] lay in the range of 28 to 67 nM.

These data come from patent US9914914B2, “Polymerase capable of producing non-DNA nucleotide polymers” (Medical Research Council, priority 2012, dated 2018).
